# Source: article PMC9050848, “Carbamoyl-N-aryl-imine-urea: a new framework to obtain a putative leishmanicidal drug-candidate” (RSC Advances, 2020)
# How the values were obtained:
# [1] = Toxicity in treated infected mice (survival, spleen weight, serum biochemistry); format: in vivo; settings: 30 μmol per kg per day × 28 days
# Protocol: The survival of BALB/c mice infected with L. amazonensis untreated and treated during 28 days with the daily dose of 30 μmol kg^−1 with meglumine antimoniate, miltefosine and 10e (LASSBio-1736) was analyzed. Animal mortality was not observed for the groups treated with 10e and miltefosine, while 20% of death was identified from the 25th day of treatment with meglumine antimoniate (Fig. 11). After the end of treatment, the animal's toxicity was investigated looking for any alterations on spleen weight and on alanine aminotransferase (ALT), aspartate aminotransferase (AST), creatinine (CREA) and urea serum levels.
# This study (protocol number 2013.02) was approved by the Ethics Committee for Animal Experimentation of the Federal University of Alagoas (Brazil). All animals received humane care in compliance with the ‘Principles of laboratory animal care’ formulated by the National Society for Medical Research and the ‘Guide for the care and use of laboratory animals’ prepared by the National Academy of Sciences (Washington, DC). Then, 1 × 10^5 stationary promastigotes (5 days of culture in Schneider's medium) of L. amazonensis were inoculated subcutaneously into the right ear dermis of 6 week-old female BALB/c mice weighing ca. 20 g. and later treated with 10e (i.p.), miltefosine (p.o.) or meglumine antimoniate (i.p.) at 30 μmol kg^−1 × 28 days. The vehicle to solubilize 10e (LASSBio-1736) and standard drugs was Tween 20 (50 μL) and sterile water for injection, which was also administrated by i.p. route in two controls groups (non-infected control and infected control). The lesion size was measured using a paquimeter.[32] The parasite loads of infected ears and draining lymph nodes were determined using a quantitative limiting-dilution assay.[33] Toxicity was also evaluated due to alterations on spleen weight and by biochemistry dosages in plasma, performed according to the manufacturer's instructions (Doles, BRA). Data obtained from experiments were expressed as the mean ± S.E.M. and statistical differences between the treated and the vehicle groups of experiments were evaluated by ANOVA and Dunnett hoc tests.
# [2] = Plasma stability (UPLC-MS/MS recovery); format: in vitro ADME; settings: 4 hours, 37 °C, rat plasma diluted 1:1 with PBS pH 7.4
# Protocol: To investigate the potential plasma instability of the carbamoyl-N-arylimine-urea subunit, designed as a new peptide mimetic framework, compound 10e (LASSBio-1736) was selected to investigate its plasma stability,[21,22] previously to the evaluation of its in vivo leishmanicidal effect. Quantitation of 10e (LASSBio-1736), benzocaine standard (positive control; it means a substrate drug for plasma hydrolysis) and ketoconazole (internal standard) was determined by UPLC-MS/MS, after incubation of the compounds at 0, 30, 60, 120 and 240 min with rat plasma, and measuring the peak areas in three different experiments.
# For analysis of plasma stability, 5 μL (250 ng mL^−1) of a concentrated solution of 10e (LASSBio-1736) or the positive control benzocaine (stock concentration = 10 000 ng mL^−1 solubilized in DMSO) was added in 195 μL of rat plasma solution (1 : 1) diluted with PBS (pH 7.4). […] The supernatant (400 μL) were placed in 2 mL vials, and analyzed by UPLC-MS/MS. […]
# Detection in single reaction monitoring (SRM) mode was used for determination of the LASSBio-1736 (10e) m/z 419.1 → 205.0, benzocaine m/z 166.1 → 137.9 and ketoconazole (IS) 532.1 → 490.3, with a tolerance of mass deviation of 6 ppm, operating in positive ionization mode. The data were acquired using TraceFinder 3.2. software (Thermo Fisher Scientific, Waltham, USA), and analyzed using GraphPad Prism 5 program.
smiles,measurement,setting,value
"O=C(N/N=C/c1ccc(C(F)(F)F)cc1)NNC(=O)c1ccc(Cl)cc1Cl [LASSBio-1736 (10e), 2,4-dichloro-phenylcarbamoyl-N-4-trifluoromethylphenylimine-urea]","Serum levels of ALT, AST, creatinine and urea","[1]; after end of treatment, i.p.",did not significantly interfere
same,Spleen weight,[1]; last day of treatment,did not alter animal's spleen weight
same,Compound recovery after incubation with rat plasma,[2],completely recovered
